In patent publication US20240166660A1, “KRAS G12C INHIBITORS” (BeiGene Switzerland GmbH, priority 2021, published 2024) one finds IC50 data, which are given here for 19 molecules.

Sequence of KRAS (aa 1-169) G12C, C51S, C80L, C118S (P01116 other isoform, or with tags, fused parts or gaps G12C/C51S/C80L/C118S): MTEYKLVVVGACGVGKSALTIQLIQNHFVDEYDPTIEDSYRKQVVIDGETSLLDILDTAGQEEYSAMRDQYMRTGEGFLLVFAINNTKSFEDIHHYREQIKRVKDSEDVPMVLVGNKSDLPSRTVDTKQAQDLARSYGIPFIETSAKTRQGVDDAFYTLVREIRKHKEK

For this experiment, the target named is KRAS (aa 1-169) G12C, C51S, C80L, C118S (Homo sapiens (Human), UniProt P01116, C118S/C51S/C80L/G12C). The experiment is described as follows: Biochemical functional assay: SOS1-mediated nucleotide exchange of GDP-loaded KRAS G12C, binding to GST-cRaf RBD, FRET readout. The following applies: 3 hrs pre-incubation with compound at 24° C., SOS1, GTPyS, inhibition of nucleotide exchange. In a few lines:
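GDP-loaded His-tagged KRAS construct preincubated with compound 3 h at 24° C in 25 mM HEPES pH7.5, 10 mM MgCl2, 0.01% Triton X-100; SOS1 (aa 564-1049), GTPγS and GST-cRaf RBD added for 3 h, then anti-His Tb cryptate/anti-GST XL665 for 3 h. HTRF 665/620 ratio; IC50 by four-parameter logistic fit.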
Usually IC50 stands for the concentration that gives 50% inhibition. Consider `C=C(F)C(=O)N1CCN(c2nc(OC[C@@H]3CCCN3C)nc3cc(-c4cccc5c4CCC5)c4c(c23)OCCC4)C[C@@H]1CC#N` [Compound B78, 2-((S)-4-(5-(2,3-dihydro-1H-inden-4-yl)-8-(((S)-1-methylpyrrolidin-2-yl)methoxy)-3,4-dihydro-2H-pyrano[2,3-f]quinazolin-10-yl)-1-(2-fluoroacryloyl)piperazin-2-yl)acetonitrile], for which the IC50 came out at 12 nM.

Consider `C=C(F)C(=O)N1CCN(c2nc(OCC3C[C@@H](OC)CN3C)nc3cc(-c4cccc5cccc(Cl)c45)c4c(c23)OCCC4)C[C@@H]1CC#N` (mixture of isomers) [Compound B93, 2-((2S)-4-(5-(8-chloronaphthalen-1-yl)-8-(((4R)-4-methoxy-1-methylpyrrolidin-2-yl)methoxy)-3,4-dihydro-2H-pyrano[2,3-f]quinazolin-10-yl)-1-(2-fluoroacryloyl)piperazin-2-yl)acetonitrile], for which the IC50 amounted to 11 nM.

Turning to `C=CC(=O)N1CCN(c2nc(OC[C@@H]3CCCN3C)nc3cc(-c4c(O)cccc4F)c4ccoc4c23)CC1` [Compound B46, 1-(4-(4-(2-fluoro-6-hydroxyphenyl)-7-(((S)-1-methylpyrrolidin-2-yl)methoxy)furo[2,3-f]quinazolin-9-yl)piperazin-1-yl)prop-2-en-1-one], the IC50 is 621 nM.

With `C=C(F)C(=O)N1CCN(c2nc(OC[C@@H]3CCCN3C)nc3cc(-c4cccc5c4CCCC5)c4c(c23)OCCC4)C[C@@H]1CC#N` [Compound B81, 2-((S)-1-(2-fluoroacryloyl)-4-(8-(((S)-1-methylpyrrolidin-2-yl)methoxy)-5-(5,6,7,8-tetrahydronaphthalen-1-yl)-3,4-dihydro-2H-pyrano[2,3-f]quinazolin-10-yl)piperazin-2-yl)acetonitrile], the IC50 is 48 nM.

On to `C=C(F)C(=O)N1CCN(c2nc(OC[C@@H]3CCCN3C)nc3cc(-c4ccc(F)c5sc(N)nc45)c4c(c23)OCCC4)C[C@@H]1CC#N` [Compound B29, 2-((S)-4-(5-(2-amino-7-fluorobenzo[d]thiazol-4-yl)-8-(((S)-1-methylpyrrolidin-2-yl)methoxy)-3,4-dihydro-2H-pyrano[2,3-f]quinazolin-10-yl)-1-(2-fluoroacryloyl)piperazin-2-yl)acetonitrile], for which the IC50 came to 4.51 nM.

As to `C=CC(=O)N1CCN(c2nc(OC[C@@H]3CCCN3C)nc3cc(-c4ccccc4F)c4ccoc4c23)CC1` [Compound B45, (S)-1-(4-(4-(2-fluorophenyl)-7-((1-methylpyrrolidin-2-yl)methoxy)furo[2,3-f]quinazolin-9-yl)piperazin-1-yl)prop-2-en-1-one], the IC50 came to 2020 nM.

Regarding `C=CC(=O)N1CCN(c2nc(OC[C@@H]3CCCN3C)nc3cc(-c4cccc5cccc(Cl)c45)c4c(c23)OCCC4)C[C@@H]1CC#N` [Compound B82, 2-((S)-1-acryloyl-4-(5-(8-chloronaphthalen-1-yl)-8-(((S)-1-methylpyrrolidin-2-yl)methoxy)-3,4-dihydro-2H-pyrano[2,3-f]quinazolin-10-yl)piperazin-2-yl)acetonitrile], the IC50 worked out at 6.2 nM.

For the molecule `C=CC(=O)N1CCN(c2nc(OC[C@@H]3CCCN3C)nc3cc(-c4c(C)cccc4Cl)c4ccoc4c23)CC1` [Compound B76, 1-(4-(4-(2-chloro-6-methylphenyl)-7-(((S)-1-methylpyrrolidin-2-yl)methoxy)furo[2,3-f]quinazolin-9-yl)piperazin-1-yl)prop-2-en-1-one], the IC50 was 279 nM.

`C=CC(=O)N1CCN(c2ncnc3cc(-c4c(Cl)c(Cl)cc5[nH]ncc45)c4c(c23)OCCC4)C[C@@H]1CC#N` [Compound A29, 2-((2S)-1-acryloyl-4-(5-(5,6-dichloro-1H-indazol-4-yl)-3,4-dihydro-2H-pyrano[2,3-f]quinazolin-10-yl)piperazin-2-yl)acetonitrile]: the 50% inhibitory concentration (IC50) is 9.3 nM.

For `C=CC(=O)N1CCN(c2ncnc3cc(-c4c(O)cccc4F)c4c(c23)OCCC4)C[C@@H]1CC#N` [Compound A4, 2-((2S)-1-acryloyl-4-(5-(2-fluoro-6-hydroxyphenyl)-3,4-dihydro-2H-pyrano[2,3-f]quinazolin-10-yl)piperazin-2-yl)acetonitrile], the IC50 was 89.6 nM.

In the case of `C=C(F)C(=O)N1CCN(c2nc(OCC3C[C@@H](OC)CN3C)nc3cc(-c4cccc5cccc(Cl)c45)c4c(c23)OCCC4)C[C@@H]1CC#N` (single isomer, unassigned) [Compound B95], the half-inhibitory concentration (IC50) turned out to be 11.5 nM.

Turning to `C=C(F)C(=O)N1CCN(c2nc(N3CC(CC#N)(N(C)C)C3)nc3cc(-c4cccc5cccc(Cl)c45)c4c(c23)OCCC4)C[C@@H]1CC#N` (single isomer, unassigned) [Compound B91], the half-maximal inhibitory concentration (IC50) is 15 nM.

In the case of `C=C(F)C(=O)N1CCN(c2nc(N3CC(CC#N)(N(C)C)C3)nc3cc(-c4cccc5cccc(Cl)c45)c4c(c23)OCCC4)C[C@@H]1CC#N` (single isomer, unassigned) [Compound B92], the half-maximal inhibitory concentration (IC50) was found to be 381 nM.

`C=C(F)C(=O)N1CCN(c2nc(OC[C@@H]3CCCN3C)nc3cc(-c4ccccc4C(F)(F)F)c4c(c23)OCCC4)C[C@@H]1CC#N` [Compound B33, 2-((S)-1-(2-fluoroacryloyl)-4-(8-(((S)-1-methylpyrrolidin-2-yl)methoxy)-5-(2-(trifluoromethyl)phenyl)-3,4-dihydro-2H-pyrano[2,3-f]quinazolin-10-yl)piperazin-2-yl)acetonitrile]: the concentration for half-maximal inhibition (IC50) stood at 51 nM.

For `C=CC(=O)N1CCN(c2ncnc3cc(-c4c(Cl)c(F)cc5[nH]ncc45)c4c(c23)OCCC4)C[C@@H]1CC#N` [Compound A17, 2-((2S)-1-acryloyl-4-(5-(5-chloro-6-fluoro-1H-indazol-4-yl)-3,4-dihydro-2H-pyrano[2,3-f]quinazolin-10-yl)piperazin-2-yl)acetonitrile], the concentration for half-maximal inhibition (IC50) was 31.7 nM.

Turning to `C=C(F)C(=O)N1CCN(c2nc(OC3COCC3N(C)C)nc3cc(-c4cccc5cccc(Cl)c45)c4c(c23)OCCC4)C[C@@H]1CC#N` (stereo partly drawn) [Compound B69, 2-((2S)-4-(5-(8-chloronaphthalen-1-yl)-8-((4-(dimethylamino)tetrahydrofuran-3-yl)oxy)-3,4-dihydro-2H-pyrano[2,3-f]quinazolin-10-yl)-1-(2-fluoroacryloyl)piperazin-2-yl)acetonitrile], the half-maximal inhibitory concentration (IC50) came out at 1220 nM.

Regarding `C=C(F)C(=O)N1CCN(c2nc(OC[C@@H]3CCCN3C)nc3cc(-c4c(Cl)c(C)cc5[nH]ncc45)c4c(c23)OCCC4)C[C@@H]1CC#N` (single isomer, unassigned; atropisomer 2) [Compound B13], the 50% inhibitory concentration (IC50) is 325 nM.

In the case of `C=C(F)C(=O)N1CCN(c2nc(N3CC(N(C)C)C3)nc3cc(-c4cccc5cccc(Cl)c45)c4c(c23)OCCC4)C[C@@H]1CC#N` (single isomer, unassigned) [Compound B101], the 50% inhibitory concentration (IC50) worked out at 6.53 nM.

Take `C=CC(=O)N1CCN(c2nc(OC[C@@H]3CCCN3C)nc3cc(-c4c(Cl)c(C)cc5[nH]ncc45)c4c(c23)OCCC4)C[C@@H]1CC#N` [Compound B1, 2-((2S)-1-acryloyl-4-(5-(5-chloro-6-methyl-1H-indazol-4-yl)-8-(((S)-1-methylpyrrolidin-2-yl)methoxy)-3,4-dihydro-2H-pyrano[2,3-f]quinazolin-10-yl)piperazin-2-yl)acetonitrile]: the 50% inhibitory concentration (IC50) is 3 nM.
